Source: PubChem BioAssay AID206 (DTP/NCI, 2004)
Results filed as inconclusive are left out.

Tested on: nude mice, HT29 intrarenal xenograft, tumor weight T/C
Assay: NCI In Vivo Anticancer Drug Screen. Data for tumor model HT29;CX-1 Human Adenocarcinoma (MER+) (intrarenal inoculation) in NU/NU Swiss (nude) mice
Settings: endpoint: mean tumor weight change, higher = larger tumour
Outline: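 Compounds were given to mice carrying transplantable tumors; a vehicle-dosed group served as control. The endpoint measured in each group was compared as a T/C quotient.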

[1] = dose: 150.0 mg/kg/injection, schedule: Q04DX004 (sc), vehicle: saline with Tween-80
[2] = dose: 300.0 mg/kg/injection, schedule: Q04DX004 (sc), vehicle: saline with Tween-80
[3] = dose: 75.0 mg/kg/injection, schedule: Q04DX004 (sc), vehicle: Klucel (hydroxypropylcellulose) (HPC)
[4] = dose: 150.0 mg/kg/injection, schedule: Q04DX004 (sc), vehicle: Klucel (hydroxypropylcellulose) (HPC)
[5] = dose: 300.0 mg/kg/injection, schedule: Q04DX004 (sc), vehicle: Klucel (hydroxypropylcellulose) (HPC)
[6] = dose: 600.0 mg/kg/injection, schedule: Q04DX004 (sc), vehicle: Klucel (hydroxypropylcellulose) (HPC)

CS(=O)(=O)c1ncc(Br)cn1
T/C (dose: 62.5 mg/kg/injection, schedule: Q04DX004 (sc), vehicle: saline): 83 % of control
T/C (dose: 75.0 mg/kg/injection, schedule: Q04DX004 (sc), vehicle: saline with Tween-80): 99 % of control
T/C (dose: 125.0 mg/kg/injection, schedule: Q04DX004 (sc), vehicle: saline): 109 % of control
T/C [1]: 109 % of control
T/C (dose: 250.0 mg/kg/injection, schedule: Q04DX004 (sc), vehicle: saline): 92 % of control
T/C [2]: 57 % of control
T/C (dose: 500.0 mg/kg/injection, schedule: Q04DX004 (sc), vehicle: saline): 89 % of control

O=C1CN(Cc2ccc3c(c2)OCO3)NO1
T/C [1]: 92 % of control
T/C [2]: 103 % of control

NC(CCl)=NCC12CC3CC(CC(C3)C1)C2
T/C (dose: 37.5 mg/kg/injection, schedule: Q04DX004 (sc), vehicle: Klucel (hydroxypropylcellulose) (HPC)): 97 % of control
T/C [3]: 114 % of control

CCCN1COC(OCC)C(C)(C)C1 (stereo not drawn)
T/C [1]: 114 % of control
T/C [2]: 79 % of control
T/C (dose: 600.0 mg/kg/injection, schedule: Q04DX004 (sc), vehicle: saline with Tween-80): 96 % of control

CCOC(=O)C1=C(C#N)C2(CCC(OCc3ccccc3)CC2)C(=O)O1 (stereo not drawn)
T/C (dose: 100.0 mg/kg/injection, schedule: Q04DX004 (sc), vehicle: suspension in saline): 91 % of control
T/C (dose: 800.0 mg/kg/injection, schedule: Q04DX004 (sc), vehicle: suspension in saline): 110 % of control

COc1ccc(Cl)[n+]([O-])n1
T/C (dose: 50.0 mg/kg/injection, schedule: Q04DX004 (sc), vehicle: Klucel (hydroxypropylcellulose) (HPC)): 64 % of control
T/C (dose: 100.0 mg/kg/injection, schedule: Q04DX004 (sc), vehicle: Klucel (hydroxypropylcellulose) (HPC)): 66 % of control

CC(C)NC(=O)N(CCCCBr)N=O
T/C [3]: 174 % of control
T/C [4]: 182 % of control
T/C [5]: 91 % of control
T/C [6]: 108 % of control

N=C(N)CCCCCCCCC(=N)N
T/C (dose: 18.75 mg/kg/injection, schedule: Q04DX004 (sc), vehicle: saline): 101 % of control

Nc1ncnc2c1ncn2C1C=C(CO)C(O)C1O (stereo not drawn)
T/C (dose: 3.75 mg/kg/injection, schedule: Q04DX004 (sc), vehicle: saline): 76 % of control
T/C (dose: 7.5 mg/kg/injection, schedule: Q04DX004 (sc), vehicle: saline): 103 % of control
T/C (dose: 15.0 mg/kg/injection, schedule: Q04DX004 (sc), vehicle: saline): 81 % of control

CO[C@H](/C(C)=C/C=C/C(C)=C/c1coc(C)n1)[C@H](C)[C@H]1C[C@@H](O)[C@@]2(C)O[C@H]2/C=C/[C@@H](C)[C@@H]2C[C@@H](CC(=O)O2)C[C@H]2O[C@@H]2C(=O)O1
T/C (dose: 0.12 mg/kg/injection, schedule: Q04DX004 (sc), vehicle: Klucel (hydroxypropylcellulose) (HPC)): 87 % of control
T/C (dose: 0.25 mg/kg/injection, schedule: Q04DX004 (sc), vehicle: Klucel (hydroxypropylcellulose) (HPC)): 45 % of control
T/C (dose: 0.5 mg/kg/injection, schedule: Q04DX004 (sc), vehicle: Klucel (hydroxypropylcellulose) (HPC)): 30 % of control

COc1ccc2[nH]c3ccc4cc[n+](CCN5CCC(C6CCN(CC[n+]7ccc8ccc9[nH]c%10ccc(OC)cc%10c9c8c7)CC6)CC5)cc4c3c2c1
T/C [4]: 194 % of control
T/C [5]: 189 % of control
T/C [6]: 83 % of control

c1ccc2c(NCCCCCCCCNc3c4ccccc4nc4ccccc34)c3ccccc3nc2c1
T/C (dose: 10.0 mg/kg/injection, schedule: Q01DX010 (sc), vehicle: Klucel (hydroxypropylcellulose) (HPC)): 67 % of control
T/C (dose: 20.0 mg/kg/injection, schedule: Q01DX010 (sc), vehicle: Klucel (hydroxypropylcellulose) (HPC)): 44 % of control
T/C (dose: 40.0 mg/kg/injection, schedule: Q01DX010 (sc), vehicle: Klucel (hydroxypropylcellulose) (HPC)): 82 % of control

O=c1[nH]cnc2[nH]ncc12
T/C (dose: 150.0 mg/kg/injection, schedule: Q04DX004 (sc), vehicle: suspension in saline): 33 % of control
T/C (dose: 300.0 mg/kg/injection, schedule: Q04DX004 (sc), vehicle: suspension in saline): 31 % of control
T/C (dose: 600.0 mg/kg/injection, schedule: Q04DX004 (sc), vehicle: suspension in saline): 21 % of control
T/C (dose: 1200.0 mg/kg/injection, schedule: Q04DX004 (sc), vehicle: suspension in saline): 31 % of control

COc1cccc2c1C(=O)c1c(O)c3c(c(O)c1C2=O)C[C@@](O)(/C(C)=N/NC(=O)c1ccccc1)C[C@@H]3OC1CC(N)C(O)C(C)O1 (stereo partly drawn)
T/C (dose: 18.75 mg/kg/injection, schedule: Q04DX004 (sc), vehicle: water): 117 % of control
T/C (dose: 37.5 mg/kg/injection, schedule: Q04DX004 (sc), vehicle: water): 123 % of control

Nc1nc(-c2cccc3ccccc23)cc2ccccc12
T/C (dose: 200.0 mg/kg/injection, schedule: Q04DX004 (sc), vehicle: saline with Tween-80): 67 % of control
T/C (dose: 400.0 mg/kg/injection, schedule: Q04DX004 (sc), vehicle: saline with Tween-80): 105 % of control
